Laboratory results reported in patent US7759369B2, “Pyridine compounds for the treatment of prostaglandin mediated diseases” (Glaxo Group Limited, priority 2004, dated 2010).

Assays:
EP1 receptors [1] = biological target: T1, EP1 receptors (Homo sapiens, UniProt P34995); experiment: Binding assay for the human prostanoid EP1 receptor (competition with [3H]-PGE2); design: expressed in transfected cells; host or cells: CHO-K1 (membrane fraction); settings: averages of a number of experiments; Example 3 as sodium salt; read-out: pIC50 value in the binding assay for the human prostanoid EP1 receptor (converted)
T1 sequence (P34995 1-402): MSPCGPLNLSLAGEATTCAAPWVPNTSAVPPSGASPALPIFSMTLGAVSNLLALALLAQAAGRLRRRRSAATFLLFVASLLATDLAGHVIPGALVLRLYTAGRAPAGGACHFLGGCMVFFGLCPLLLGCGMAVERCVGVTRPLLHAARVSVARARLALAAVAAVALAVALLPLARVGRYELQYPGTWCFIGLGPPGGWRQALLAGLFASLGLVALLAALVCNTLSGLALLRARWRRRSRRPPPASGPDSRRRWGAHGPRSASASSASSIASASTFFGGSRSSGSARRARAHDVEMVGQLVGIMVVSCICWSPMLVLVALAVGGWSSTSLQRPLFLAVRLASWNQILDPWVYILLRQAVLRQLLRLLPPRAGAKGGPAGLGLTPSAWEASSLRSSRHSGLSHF
Description: Binding Assay for the Human Prostanoid EP1 Receptor
Competition assay using [^3H]-PGE2.
Compound potencies are determined using a radioligand binding assay. In this assay compound potencies are determined from their ability to compete with tritiated prostaglandin E2 ([^3H]-PGE2) for binding to the human EP1 receptor.
This assay utilises Chinese hamster ovary-K1 (CHO-K1) cells into which a stable vector containing the EP1 cDNA has previously been transfected. Cells are cultured in suitable flasks containing culture medium such as DMEM:F-12 supplemented with 10% v/v foetal calf serum, 2 mM L-glutamine, 0.25 mg/ml geneticin, 10 μg/ml puromycin and 10 μM indomethacin.
Cells are detached from the culture flasks by incubation in calcium and magnesium free phosphate buffered saline containing 1 mM disodium ethylenediaminetetraacetic acid (Na2EDTA) and 10 μM indomethacin for 5 min. The cells are isolated by centrifugation at 250×g for 5 mins and suspended in an ice cold buffer such as 50 mM Tris, 1 mM Na2EDTA, 140 mM NaCl, 10 μM indomethacin (pH 7.4). The cells are homogenised using a Polytron tissue disrupter (2×10s burst at full setting), centrifuged at 48,000×g for 20 mins and the pellet containing the membrane fraction is washed (optional) three times by suspension and centrifugation at 48,000×g for 20 mins. The final membrane pellet is suspended in an assay buffer such as 10 mM 2-[N-morpholino]ethanesulphonic acid, 1 mM Na2EDTA, 10 mM MgCl2 (pH 6). Aliquots are frozen at −80° C. until required.
For the binding assay the cell membranes, competing compounds and [^3H]-PGE2 (3 nM final assay concentration) are incubated in a final volume of 100 μl for 30 min at 30° C. All reagents are prepared in assay buffer. Reactions are terminated by rapid vacuum filtration over GF/B filters using a Brandell cell harvester. The filters are washed with ice cold assay buffer, dried and the radioactivity retained on the filters is measured by liquid scintillation counting in Packard TopCount scintillation counter.
The data are analysed using non linear curve fitting techniques to determine the concentration of compound producing 50% inhibition of specific binding (IC50).

EP1 receptors [2] = biological target: T1, EP1 receptors; experiment: human EP1 calcium mobilisation assay (CHO-K1 cells, PGE2, FLIPR); format: cell-based; design: expressed in transfected cells; host or cells: CHO-K1; settings: free bases or sodium salts; averages of a number of experiments; read-out: functional pKi value, human EP1 calcium mobilisation assay (converted)
Description: (§1) Briefly, the antagonist properties of compounds are assessed by their ability to inhibit the mobilisation of intracellular calcium ([Ca^2+]i) in response to activation of EP1 or EP3 receptors by the natural agonist hormone prostaglandin E2 (PGE2). Increasing concentrations of antagonist reduce the amount of calcium that a given concentration of PGE2 can mobilise. The net effect is to displace the PGE2 concentration-effect curve to higher concentrations of PGE2. The amount of calcium produced is assessed using a calcium-sensitive fluorescent dye such as Fluo-4, AM and a suitable instrument such as a Fluorimetric Imaging Plate Reader (FLIPR). Increasing amounts of [Ca^2+]i produced by receptor activation increase the amount of fluorescence produced by the dye and give rise to an increasing signal. The signal may be detected using the FLIPR instrument and the data generated may be analysed with suitable curve-fitting software.
(§2) The human EP1 or EP3 calcium mobilisation assay (hereafter referred to as ‘the calcium assay’) utilises Chinese hamster ovary-K1 (CHO-K1) cells into which a stable (pCIN; BioTechniques 20 (1996): 102-110) vector containing either EP1 or EP3 cDNA has previously been transfected. Cells are cultured in suitable flasks containing culture medium such as DMEM:F-12 supplemented with 10% v/v foetal calf serum, 2 mM L-glutamine, 0.25 mg/ml geneticin, 100 μM flurbiprofen and 10 µg/ml puromycin.
(§3) For assay, cells are harvested using a proprietary reagent that dislodges cells such as Versene. Cells are re-suspended in a suitable quantity of fresh culture media for introduction into a 384-well plate. Following incubation for 24 hours at 37° C. the culture media is replaced with a medium containing Fluo-4 and the detergent pluronic acid, and a further incubation takes place. Concentrations of compounds are then added to the plate in order to construct concentration-effect curves. This may be performed on the FLIPR in order to assess the agonist properties of the compounds. Concentrations of PGE2 are then added to the plate in order to assess the antagonist properties of the compounds.
(§4) The data so generated may be analysed by means of a computerised curve-fitting routine. The concentration of compound that elicits a half-maximal inhibition of the calcium mobilisation induced by PGE2 (pIC50) may then be estimated.

EP3 receptors = biological target: T2, EP3 receptors (Homo sapiens, UniProt P43115); experiment: human EP3 calcium mobilisation assay (CHO-K1 cells, PGE2, FLIPR); format: cell-based; settings: free bases or sodium salts; averages of a number of experiments; read-out: functional pKi value, human EP3 calcium mobilisation assay (converted)
T2 construct: expressed in transfected cells; host or cells: CHO-K1
T2 sequence (P43115 1-390): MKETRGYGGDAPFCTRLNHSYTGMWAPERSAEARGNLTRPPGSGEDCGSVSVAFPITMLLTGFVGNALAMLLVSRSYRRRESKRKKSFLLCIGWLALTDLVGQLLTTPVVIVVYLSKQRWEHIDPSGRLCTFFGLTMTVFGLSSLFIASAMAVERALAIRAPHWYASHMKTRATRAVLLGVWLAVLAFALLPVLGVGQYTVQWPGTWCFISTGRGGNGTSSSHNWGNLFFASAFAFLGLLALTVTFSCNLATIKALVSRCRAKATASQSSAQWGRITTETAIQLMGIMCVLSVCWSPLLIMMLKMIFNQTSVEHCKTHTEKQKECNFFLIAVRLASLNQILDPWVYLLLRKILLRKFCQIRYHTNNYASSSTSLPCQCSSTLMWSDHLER
Description: as §1, §2, §3, §4

TP receptor = biological target: T3, TP receptor (Homo sapiens, UniProt P21731); experiment: human TP calcium mobilisation assay (CHO-K1 cells, U46619, FLIPR); format: cell-based; settings: free bases or sodium salts; read-out: functional pKi, human TP calcium mobilisation assay (converted)
T3 construct: expressed in transfected cells; host or cells: CHO-K1
T3 sequence (P21731 1-343): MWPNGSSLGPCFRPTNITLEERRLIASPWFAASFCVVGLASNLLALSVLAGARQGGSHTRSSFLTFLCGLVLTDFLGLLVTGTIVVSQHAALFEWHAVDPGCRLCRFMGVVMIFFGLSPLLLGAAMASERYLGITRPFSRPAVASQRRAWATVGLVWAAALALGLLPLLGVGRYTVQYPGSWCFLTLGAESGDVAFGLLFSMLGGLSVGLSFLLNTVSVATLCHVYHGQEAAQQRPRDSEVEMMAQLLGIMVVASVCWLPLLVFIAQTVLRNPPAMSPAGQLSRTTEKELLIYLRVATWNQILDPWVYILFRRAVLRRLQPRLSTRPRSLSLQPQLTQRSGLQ
Description: as §1, with “To determine if a compound has agonist or antagonist activity at the TP receptor a functional calcium mobilisation assay may be performed. Briefly,” for “Briefly,”, “TP” for “EP1 or EP3”, “stable TXA2 mimetic U46619 (9,11-dideoxy-11α,9α-epoxy-methanoprostaglandin F2 α; commercially available from e.g Sigma-Aldrich).” for “natural agonist hormone prostaglandin E2 (PGE2).”, “U46619” for “PGE2”, “curve.” for “curve to higher concentrations of PGE2.”, “software. The agonist activity of the compounds are determined by their ability to cause an increase in intracellular mobilisation in the absence of U46619.” for “software.”
as §2, with “TP” for “EP1 or EP3”, “assay” for “assay (hereafter referred to as ‘the calcium assay’)”, “TP” for “either EP1 or EP3”, “μg/ml” for “µg/ml”
as §3, with “96-well” for “384-well”, “U46619” for “PGE2”
The data so generated may be analysed by means of a computerised curve-fitting routine. The concentration of compound that elicits a half-maximal inhibition of the calcium mobilisation induced by U46619 (plC50) may then be estimated, and the percentage activation caused by the compounds directly can be used to determine if there is any agonism present.

IC50 (EP1 receptors [1]) | Ki (EP1 receptors [2]) | Ki (EP3 receptors) | Ki (TP receptor) | SMILES
> 1000 nM |  |  |  | O=C(O)c1cncc(Cc2cc(Cl)ccc2OCc2c(F)cccc2F)c1 [Example 27, Sodium 5-[(5-chloro-2-{[(2,6-difluorophenyl)methyl]oxy}phenyl)methyl]-3-pyridinecarboxylate]
> 1000 nM | > 1000 nM |  |  | CC(C)(C)Oc1ccc(Cl)cc1Cc1cccc(C(=O)O)n1 [Example 41, 6-({5-Chloro-2-[(1,1-dimethylethyl)oxy]phenyl}methyl)-2-pyridinecarboxylic acid]
 | < 1000 nM | > 10000 nM | < 1000 nM | O=C(O)c1cccc(Cc2cc(Cl)ccc2OCc2ccccc2F)n1 [Example 8, Sodium 6-[(5-chloro-2-{[(2-fluorophenyl)methyl]oxy}phenyl)methyl]-2-pyridinecarboxylate]
